Test results from patent publication US9206136B2, “Pyrazolyl-based carboxamides I” (Grünenthal GmbH, priority 2013, dated 2015).

Tests used:
[1] = biological target: T1, CRAC channel (endogenous SOC in HEK293 cells) (Homo sapiens, UniProt Q96D31); experiment: HEK Calcium Influx Assay (FLIPR); type: cell-based; conditions: 10 μM compound, thapsigargin store depletion, Ca2+ signal 9.5-10 min post-administration, read-out: % inhib. [@ 10 μM] FLIPR
T1 construct: host or cells: HEK293
Method: Compounds of the invention have been tested for their effects on CRAC channels according to the following or similar procedures.
The effect of compounds of the invention on intracellular [Ca^2+] was tested in the HEK293 cell line (ECACC).
HEK293 cells were cultured in DMEM/F12/Glutamax (Gibco) containing 10% FCS (Gibco), and maintained at 37° C., 5% CO2. Cell were split twice a week [3·10^6 (Mon-Thu) and 1·10^6 (Thu-Mon) cells/50 ml medium in T-175 ZK culture flasks, respectively]. 24 hours pre-experiment, cells were seeded on 96 well plates (Poly-D-Lysine 96well Black/Clear Plate, BD Biocoat REF 356640) at a density of 40,000 cells/well in DMEM/F12 (Gibco) containing 10% FCS (Gibco), and maintained at 37° C., 5% CO2.
Prior to store-depletion, cell culture medium was removed and cells were loaded with the a Ca^2+-sensitive fluorescent dye comprised within the Calcium-4-assay kit (Molecular Devices) in nominally Ca^2+-free HBS buffer (140 mM NaCl, 4 mM KCl, 0.2 mM MgCl2, 11 mM D-glucose, and 10 mM HEPES, pH 7.4) according to manufacturer's instruction for 60 min at 37° C., 5% CO2.
Passive depletion of intracellular Ca^2+-stores was then triggered by employing the SERCA inhibitor thapsigargin (2 μM final) for 10 min in the dark (rt). To prevent immediate Ca^2+-entry via the activated Store-operated channels (SOCs), cells were maintained in Ca^2+-free HBS buffer comprising 100 μM EGTA during store-depletion.
Intracellular changes in [Ca^2+] were subsequently monitored with the FLIPR device (Molecular Devices). In brief, baseline imaging post-store depletion was allowed for 1 min before adjusting the extracellular buffer to 3 mM CaCl2. Increases in intracellular [Ca^2+] due to pre-activated SOC channels were monitored for 15 min until intracellular Ca^2+ levels had declined into a steady-state. Finally, compounds were administered and Ca^2+ signals were recorded for additional 10 min.
Inhibition of endogenous SOC in HEK293 cells was quantified employing the average Ca^2+ signal measured from 9.5-10 min post-administration. Zero percent inhibition (MAX) was defined as the Ca^2+ signal recorded from wells to which DMSO-only had been added instead of compound. Hundred percent inhibition (MIN) was defined as the signal obtained from wells in which cells haven't been treated with TG prior to Ca^2+ addition and to which DMSO-only had been added instead of compound. For routine IC50 determinations of compounds, 8 concentrations of a serial dilution (1:3.16) were tested, starting off from 10 μM. Reliable IC50's could consequently be determined only, if they were at least sub 2.5-3 μM.

[2] = test system: Interleukin-2 (IL-2) production/release in Jurkat T cell line clone E6-1; experiment: Jurkat IL-2 Production Assay; type: cell-based; conditions: Homo sapiens; Jurkat T cells stimulated with 15 μg/ml PHA for 22 hours; IL-2 in supernatant (AlphaLisa)
Method: Jurkat IL-2 Production Assay
The effect of compounds of the invention on Interleukin-2 (IL-2) production/release was tested in the Jurkat T cell line (ECACC) clone E6-1.
Jurkat T cells were cultured in DMEM/F12/Glutamax (Gibco) containing 10% FCS (Gibco), and maintained at 37° C., 5% CO2. Cells were split twice a week [5·10^6 (Mon-Thu) and 1·10^7 (Thu-Mon) cells/50 ml medium in T-175 ZK culture flasks, respectively].
Prior to experiment, cells were seeded on 96 well plates (Cellstar 96 Well; Cat No. 655180, Greiner bio-one) at a density of 5·10^5 cells/well in DMEM/F12/Glutamax (Gibco) containing 10% FCS (Gibco), and incubated for 60 min at 37° C., 5% CO2. Subsequently, compounds were added and cells were allowed to incubate for 30 min at 37° C., 5% CO2. Cells were then stimulated with 15 μg/ml Phyto-hemagglutinin (PHA; Sigma) for 22 hours at 37° C., 5% CO2.
Before sampling of the supernatants, cells were spun down (200*g/5 min/RT). The amount of IL-2 released into the supernatant was quantified with the human IL-2 AlphaLisa kit (Perkin Elmer) according to manufacturer's instructions. Luminescence proximity measurements were carried out in the Synergy H4 reader (BioTek) employing the fluorescence setting of the reader (ex: 680/30 nm; em: 620/40 nm).
Inhibition of IL-Production/Release in/from Jurkat T Cells Cells was Quantified as Follows:
Zero percent inhibition (MAX) was defined as the [IL-2] determined in supernatants derived from cells to which PHA & DMSO-only had been added instead of compound. Hundred percent inhibition (MIN) was defined as the [IL-2] determined in supernatants derived from cells that had been pre-treated with 1 μM CyclosporineA (Sigma) before the addition of 15 μg/ml PHA.
For routine IC50 determinations of compounds, 8 concentrations of a serial dilution (1:3.16) were tested, starting off from 10 μM.

T1 sequence (Q96D31 whole entry): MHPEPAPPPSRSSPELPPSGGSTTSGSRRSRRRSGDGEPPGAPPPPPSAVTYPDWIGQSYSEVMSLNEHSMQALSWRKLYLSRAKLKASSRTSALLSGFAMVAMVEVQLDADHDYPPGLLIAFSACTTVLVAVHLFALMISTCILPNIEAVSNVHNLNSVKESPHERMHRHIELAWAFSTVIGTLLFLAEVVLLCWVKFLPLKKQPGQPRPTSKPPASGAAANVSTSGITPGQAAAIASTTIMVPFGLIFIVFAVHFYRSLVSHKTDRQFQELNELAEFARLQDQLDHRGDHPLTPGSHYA

| Structure (SMILES) | inhibition at 10 µM [1] | IC50 [2] |
| --- | --- | --- |
| Cc1ccc(-c2nccs2)cc1-c1cc(C(=O)Nc2ccncc2F)nn1C [Example 1, N-(3-Fluoro-pyridin-4-yl)-1-methyl-5-(2-methyl-5-thiazol-2-yl-phenyl)-1H-pyrazole-3-carboxylic acid amide] | > 70% | 1 to 5 µM |
| Cc1ccc(-c2ncco2)cc1-c1cc(C(=O)Nc2ccncc2F)nn1C [Example 2, N-(3-Fluoro-pyridin-4-yl)-1-methyl-5-(2-methyl-5-oxazol-2-yl-phenyl)-1H-pyrazole-3-carboxylic acid amide] | 50 to 70% |  |
| Cc1ccc(-c2nccs2)cc1-c1cc(C(=O)Nc2c(F)cccc2F)nn1C [Example 3, N-(2,6-Difluoro-phenyl)-1-methyl-5-(2-methyl-5-thiazol-2-yl-phenyl)-1H-pyrazole-3-carboxylic acid amide] | < 50% | < 0.5 µM |
| COc1ccc(NC(=O)c2cc(-c3cc(-c4nccs4)ccc3C)n(C)n2)cc1 [Example 4, N-(4-Methoxyphenyl)-1-methyl-5-(2-methyl-5-thiazol-2-yl-phenyl)-1H-pyrazole-3-carboxylic acid amide] | 50 to 70% | 1 to 5 µM |
| Cc1ccc(-c2nccs2)cc1-c1cc(C(=O)Nc2ccc(F)cc2)nn1C [Example 5, N-(4-Fluorophenyl)-1-methyl-5-(2-methyl-5-thiazol-2-yl-phenyl)-1H-pyrazole-3-carboxylic acid amide] | 50 to 70% | 1 to 5 µM |
| Cc1cnccc1NC(=O)c1cc(-c2cc(-c3nccs3)ccc2C)n(C)n1 [Example 6, 1-Methyl-N-(3-methyl-pyridin-4-yl)-5-(2-methyl-5-thiazol-2-yl-phenyl)-1H-pyrazole-3-carboxylic acid amide] | 50 to 70% | 1 to 5 µM |
| COc1ccc(-c2nccs2)cc1-c1cc(C(=O)Nc2ccncc2F)nn1C [Example 7, N-(3-Fluoro-pyridin-4-yl)-5-(2-methoxy-5-thiazol-2-yl-phenyl)-1-methyl-1H-pyrazole-3-carboxylic acid amide] | < 50% | 0.5 to 1 µM |
| COc1ccc(-c2nccs2)cc1-c1cc(C(=O)Nc2c(F)cccc2F)nn1C [Example 8, N-(2,6-Difluoro-phenyl)-5-(2-methoxy-5-thiazol-2-yl-phenyl)-1-methyl-1H-pyrazole-3-carboxylic acid amide] | > 70% | 0.5 to 1 µM |
| Cn1nc(C(=O)Nc2ccncc2F)cc1-c1cc(-c2nccs2)ccc1Cl [Example 9, 5-(2-Chloro-5-thiazol-2-yl-phenyl)-N-(3-fluoro-pyridin-4-yl)-1-methyl-1H-pyrazole-3-carboxylic acid amide] | 50 to 70% | 1 to 5 µM |
| Cn1nc(C(=O)Nc2c(F)cccc2F)cc1-c1cc(-c2nccs2)ccc1Cl [Example 10, 5-(2-Chloro-5-thiazol-2-yl-phenyl)-N-(2,6-difluoro-phenyl)-1-methyl-1H-pyrazole-3-carboxylic acid amide] | < 50% | < 0.5 µM |
| Cc1ccc(-c2ccncc2)cc1-c1cc(C(=O)Nc2ccncc2F)nn1C [Example 11, N-(3-Fluoro-pyridin-4-yl)-1-methyl-5-(2-methyl-5-pyridin-4-yl-phenyl)-1H-pyrazole-3-carboxylic acid amide] | > 70% | 1 to 5 µM |
| Cc1ccc(-c2ccncc2)cc1-c1cc(C(=O)Nc2c(F)cccc2F)nn1C [Example 12, N-(2,6-Difluoro-phenyl)-1-methyl-5-(2-methyl-5-pyridin-4-yl-phenyl)-1H-pyrazole-3-carboxylic acid amide] | > 70% | < 0.5 µM |
| Cc1ccc(-c2cncnc2)cc1-c1cc(C(=O)Nc2c(F)cccc2F)nn1C [Example 13, N-(2,6-Difluoro-phenyl)-1-methyl-5-(2-methyl-5-pyrimidin-5-yl-phenyl)-1H-pyrazole-3-carboxylic acid amide] | < 50% | < 0.5 µM |
| Cn1nc(C(=O)Nc2c(F)cccc2F)cc1-c1cccc(-c2nccs2)c1 [Example 14, N-(2,6-Difluoro-phenyl)-1-methyl-5-(3-thiazol-2-yl-phenyl)-1H-pyrazole-3-carboxylic acid amide] | > 70% | < 0.5 µM |
| COc1ccc(C2CC2)cc1-c1cc(C(=O)Nc2ccncc2F)nn1C [Example 15, 5-(5-Cyclopropyl-2-methoxy-phenyl)-N-(3-fluoro-pyridin-4-yl)-1-methyl-1H-pyrazole-3-carboxylic acid amide] | > 70% | 1 to 5 µM |
| COc1ccc(C2CC2)cc1-c1cc(C(=O)Nc2c(F)cccc2F)nn1C [Example 16, 5-(5-Cyclopropyl-2-methoxy-phenyl)-N-(2,6-difluoro-phenyl)-1-methyl-1H-pyrazole-3-carboxylic acid amide] | > 70% | < 0.5 µM |
| Cc1cnc(C2CC2)nc1-c1cc(C(=O)Nc2c(F)cccc2F)nn1C [Example 17, 5-(2-Cyclopropyl-5-methyl-pyrimidin-4-yl)-N-(2,6-difluoro-phenyl)-1-methyl-1H-pyrazole-3-carboxylic acid amide] | 50 to 70% |  |
| Cc1ccc(-c2ncco2)cc1-c1cc(C(=O)Nc2c(F)cccc2F)nn1C [Example 18, N-(2,6-Difluoro-phenyl)-1-methyl-5-(2-methyl-5-oxazol-2-yl-phenyl)-1H-pyrazole-3-carboxylic acid amide] | < 50% | 0.5 to 1 µM |
| Cc1noc(-c2ccc(C)c(-c3cc(C(=O)Nc4c(F)cccc4F)nn3C)c2)n1 [Example 19, N-(2,6-Difluoro-phenyl)-1-methyl-5-[2-methyl-5-(3-methyl-[1,2,4]oxadiazol-5-yl)-phenyl]-1H-pyrazole-3-carboxylic acid amide] | < 50% | 1 to 5 µM |
| Cc1ccc(-c2ccnc(N)c2)cc1-c1cc(C(=O)Nc2c(F)cccc2F)nn1C [Example 20, 5-[5-(2-Amino-pyridin-4-yl)-2-methyl-phenyl]-N-(2,6-difluoro-phenyl)-1-methyl-1H-pyrazole-3-carboxylic acid amide] | 50 to 70% | 0.5 to 1 µM |
| Cc1ccc(C2CCOCC2)cc1-c1cc(C(=O)Nc2ccncc2F)nn1C [Example 21, N-(3-Fluoro-pyridin-4-yl)-1-methyl-5-(2-methyl-5-tetrahydro-pyran-4-yl-phenyl)-1H-pyrazole-3-carboxylic acid amide] | 50 to 70% |  |
| Cc1c(C(=O)Nc2ccncc2F)nn(C)c1-c1cccc(-c2nccs2)c1 [Example 29, N-(3-Fluoro-pyridin-4-yl)-1,4-dimethyl-5-(3-thiazol-2-yl-phenyl)-1H-pyrazole-3-carboxylic acid amide] | > 70% |  |
